# How the values were obtained:
# [1] = biological target: T1, BAS0540 (Bacillus anthracis, UniProt A0A6L7HQL1); conditions: 60 mM donor, 20 mM MgCl2, pH 7.5, 37 °C; covalent phosphorylation, probable acceptor Asp50
# T1 construct: gene GBAA_0571
# [2] = biological target: T2, BAS0541T (Bacillus anthracis, UniProt A0A384L3H6); conditions: labelled compound ([gamma-32P]ATP mixed with 2.5 uM ATP), 4 mM MgCl2, pH 8, 37 °C
# T2 construct: gene GBAA_0572
# T2 sequence (A0A384L3H6 190-416 limits assumed): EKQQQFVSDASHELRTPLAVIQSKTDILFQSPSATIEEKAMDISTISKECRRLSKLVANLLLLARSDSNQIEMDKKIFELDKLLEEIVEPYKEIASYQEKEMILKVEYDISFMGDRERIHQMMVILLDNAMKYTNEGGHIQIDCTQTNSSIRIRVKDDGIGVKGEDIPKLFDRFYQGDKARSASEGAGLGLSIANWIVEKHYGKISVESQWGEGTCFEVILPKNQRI
# T1 sequence (A0A6L7HQL1 1-223 limits assumed): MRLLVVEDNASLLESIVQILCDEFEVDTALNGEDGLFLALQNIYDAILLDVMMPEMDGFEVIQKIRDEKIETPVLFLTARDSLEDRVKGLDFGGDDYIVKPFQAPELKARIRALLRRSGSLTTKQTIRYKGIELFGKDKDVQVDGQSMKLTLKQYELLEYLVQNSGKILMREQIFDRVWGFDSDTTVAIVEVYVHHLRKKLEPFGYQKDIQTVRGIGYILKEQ
smiles,measurement,setting,value
CC(=O)OP(=O)(O)O [acetyl phosphate],"phosphorylation by small-molecule donor, native PAGE, Coomassie",[1],"physiologically relevant small molecule phosphodonors, AcP and CP"
Nc1ncnc2c1ncn2[C@@H]1O[C@H](COP(=O)(O)OP(=O)(O)OP(=O)(O)O)[C@@H](O)[C@H]1O [ATP],"autophosphorylation, SDS-PAGE autoradiography",[2],Autophosphorylation was assayed by incubating the purified BAS0541T with radiolabelled ATP mixture
NC(=O)OP(=O)(O)O [carbamoyl phosphate],"phosphorylation by small-molecule donor, native PAGE, Coomassie",[1],"physiologically relevant small molecule phosphodonors, AcP and CP"

# From PMC4938410 (PLoS ONE, 2016)
